Laboratory results taken from article PMC3216401 (Antiviral research, 2011).
Values joined by “and” are separate entries in the source; they are usually repeats but may differ in a detail not shown here. Equal entries are not always repeated. Where two headings read alike, the source gives them in different places.

Experiments:
A/Gull/PA/4175/83 (H5N1) [1] = assay: microbe, parasite or virus in culture; settings: Influenza A virus, H5N1, MDCK, read-out: IC50, Neutral Red Uptake Assay
[2] = test system: influenza A/CA/07/2009 (H1N1); assay: microbe, parasite or virus in culture; assay type: cell-based; settings: H1N1, MDCK, read-out: IC90, VYR Assay
B/Florida/4/2006 [3] = test system: B/Florida/4/2006
A/Gull/PA/4175/83 (H5N1) [4] = assay: microbe, parasite or virus in culture; settings: Influenza A virus, H5N1, MDCK, read-out: IC50, Visual Assay
[5] = test system: Influenza A/Vietnam/1203/2004 (H5N1); assay: microbe, parasite or virus in culture; assay type: cell-based; settings: H5N1, MDCK, read-out: IC90, VYR Assay
in vitro = settings: dog, CC50 values, range, neutral red uptake assay
[6] = test system: A/Hong Kong/213/2003H (A/Hong Kong/213/2003 × Ann Arbor/6/60 hybrid)
[7] = test system: influenza A/CA/07/2009 (H1N1); assay: microbe, parasite or virus in culture; settings: H1N1, MDCK, read-out: IC50, Neutral Red Uptake Assay
[8] = test system: Influenza A/Vietnam/1203/2004 (H5N1); assay: microbe, parasite or virus in culture; settings: H5N1, MDCK, read-out: IC50, Visual Assay
[9] = mouse, in vivo
[10] = test system: A/Vietnam/1203/04H (A/Vietnam/1203/04 × Ann Arbor/6/60 hybrid)
[11] = test system: A/Brisbane/10/2007 (H3N2); assay: microbe, parasite or virus in culture; settings: Influenza A virus, H3N2, MDCK, read-out: IC50, Visual Assay
B/Malaysia/2506/2004 [12] = test system: B/Malaysia/2506/2004
[13] = test system: Influenza A/Vietnam/1203/2004 (H5N1)
[14] = test system: Influenza A/Vietnam/1203/2004 (H5N1); remark: listed apart in the source
[15] = test system: influenza A/CA/07/2009 (H1N1); assay: microbe, parasite or virus in culture; settings: H1N1, MDCK, read-out: IC50, Visual Assay
A/Duck/MN/1525/81 (H5N1) = assay: microbe, parasite or virus in culture; settings: Influenza A virus, H5N1, MDCK, read-out: IC50, Neutral Red Uptake Assay
[16] = test system: Influenza A/Vietnam/1203/2004 (H5N1); assay: microbe, parasite or virus in culture; settings: H5N1, MDCK, read-out: IC50, Neutral Red Uptake Assay
B/Malaysia/2506/2004 [17] = test system: B/Malaysia/2506/2004; remark: listed apart in the source
B/Florida/4/2006 [18] = test system: B/Florida/4/2006; remark: listed apart in the source
[19] = test system: A/Hong Kong/213/2003 (H5N1)
[20] = test system: A/Hong Kong/213/2003 (H5N1); assay: microbe, parasite or virus in culture; assay type: cell-based; settings: Influenza A virus, H5N1, MDCK, read-out: IC90, VYR Assay
[21] = test system: A/Hong Kong/213/2003 (H5N1); assay: microbe, parasite or virus in culture; settings: Influenza A virus, H5N1, MDCK, read-out: IC50, Visual Assay
[22] = test system: A/Hong Kong/213/2003 (H5N1); remark: listed apart in the source
[23] = test system: A/Thailand/2(Kan-1)/16/2004 (H5N1); assay: microbe, parasite or virus in culture; settings: Influenza A virus, H5N1, MDCK, read-out: IC50, Visual Assay
[24] = test system: A/Thailand/2(Kan-1)/16/2004 (H5N1); assay: microbe, parasite or virus in culture; settings: Influenza A virus, H5N1, MDCK, read-out: IC50, Neutral Red Uptake Assay
[25] = test system: influenza A/CA/04/09 pandemic H1N1 virus; set-up: species or system BALB/c mice; settings: mouse, in vivo
[26] = test system: A/Hong Kong/213/2003 (H5N1); assay: microbe, parasite or virus in culture; settings: Influenza A virus, H5N1, MDCK, read-out: IC50, Neutral Red Uptake Assay
influenza viruses = assay: microbe, parasite or virus in culture; assay type: cell-based, influenza A and B viruses; settings: Influenza A virus, MDCK, read-out: IC50, all viruses tested
[27] = test system: A/Thailand/2(Kan-1)/16/2004 (H5N1)
influenza virus = settings: in vivo; cited from earlier work
[28] = test system: A/Thailand/2(Kan-1)/16/2004 (H5N1); assay: microbe, parasite or virus in culture; assay type: cell-based; settings: Influenza A virus, H5N1, MDCK, read-out: IC90, VYR Assay
[29] = test system: A/Thailand/2(Kan-1)/16/2004 (H5N1); remark: listed apart in the source

SMILES	IC50 (A/Gull/PA/4175/83 (H5N1) [1]) [nM]	IC90 [2] [nM]	SI (CC50/IC50), Visual Assay (B/Florida/4/2006 [3])	IC50 (A/Gull/PA/4175/83 (H5N1) [4]) [nM]	IC50 [7] [nM]	SI (CC50/IC50), Neutral Red Uptake Assay [10]	IC50 [11] [nM]	SI (CC50/IC50), Neutral Red Uptake Assay (B/Malaysia/2506/2004 [12])	IC50 [15] [nM]	IC50 (A/Duck/MN/1525/81 (H5N1)) [nM]	SI (CC50/IC50), Visual Assay (B/Malaysia/2506/2004 [17])	SI (CC50/IC50), Neutral Red Uptake Assay (B/Florida/4/2006 [18])	further results
Nc1ccn([C@@H]2O[C@H](CO)[C@@H](O)C2(F)F)c(=O)n1 [2’-deoxy-2’, 2’-difluorocytidine, reference compound]	270	130	>1400	210	160	>500	130	>1500	180	< 320	>3100	>440	IC90 [5]: 30 nM; CC50 (in vitro): 1100 to 280000 nM; SI (CC50/IC50), Visual Assay [6]: >3100; IC50 [8]: < 32 nM; Tolerability in uninfected mice [9]: well tolerated; SI (CC50/IC50), Neutral Red Uptake Assay [13]: >3100; SI (CC50/IC50), Visual Assay [14]: >3100; IC50 [16]: < 32 nM
Nc1ccn([C@@H]2O[C@H](CO)[C@@H](O)[C@H]2F)c(=O)n1 [2’-deoxy-2’-fluorocytidine, 2'-deoxy-2'-fluorocytidine]	1100	4600	>100	910	4100	>29	1000	>24	3200	210	>53	>71	SI (CC50/IC50), Neutral Red Uptake Assay [19]: >447 ± 216; IC90 [20]: 1540 nM; IC50 [21]: 50 ± 10 nM; SI (CC50/IC50), Visual Assay [22]: >1954 ± 553; IC50 [23]: 160 ± 40 nM; IC50 [24]: 720 ± 510 nM; Live/Total [25]: 5/10 and 4/10 and 0/10; Mean Day of Death ± SD [25]: 7.8 ± 1.3 days and 8.9 ± 1.2 days and 9.3 ± 2.1 days; IC50 [26]: 270 ± 140 nM; IC50 (influenza viruses): < 15000 nM; SI (CC50/IC50), Neutral Red Uptake Assay [27]: >251 ± 249; Effect on virus lung titers in the mouse model (influenza virus): did not reduce virus lung titers; IC90 [28]: 690 nM; SI (CC50/IC50), Visual Assay [29]: >676 ± 204
